Data published in patent US7138361B2, “Herbicidal heterocycles” (E. I. du Pont de Nemours and Company, priority 2000, dated 2006).

Assays:
Type in all cases: in vivo
[1] = test system: Surinam grass (Brachiaria decumbens); experiment: Test B preemergence
Summary of the method: (§1)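 Seeds were planted and sprayed preemergence with test chemical in a non-phytotoxic solvent mixture containing surfactant; postemergence plants (2 to 18 cm, 1- to 4-leaf stage) received the same formulation. Greenhouse hold 13 to 15 days, then visual rating versus untreated controls on a 0–100 scale (0 no effect, 100 complete control).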

[2] = test system: barnyardgrass (Echinochloa crus-galli); experiment: Test B preemergence
Summary of the method: as §1

[3] = test system: cocklebur (Xanthium strumarium); experiment: Test B preemergence
Summary of the method: as §1

corn (Zea mays) = experiment: Test B preemergence
Summary of the method: as §1

[4] = test system: crabgrass (Digitaria sanguinalis); experiment: Test B preemergence
Summary of the method: as §1

[5] = test system: giant foxtail (Setaria faberii); experiment: Test B preemergence
Summary of the method: as §1

[6] = test system: lambsquarters (Chenopodium album); experiment: Test B preemergence
Summary of the method: as §1

[7] = test system: morning glory (Ipomoea hederacea); experiment: Test B preemergence
Summary of the method: as §1

[8] = test system: pigweed (Amaranthus retroflexus); experiment: Test B preemergence
Summary of the method: as §1

rice (Oryza saliva) = experiment: Test B preemergence
Summary of the method: as §1

[9] = test system: velvetleaf (Abutilon theophrasti); experiment: Test B preemergence
Summary of the method: as §1

[10] = test system: Surinam grass (Brachiaria decumbens); experiment: Test C preemergence
Description: (§2) Seeds of plant species selected from bermudagrass (Cynodon dactylon), Surinam grass (Brachiaria decumbens), cocklebur (Xanthium strumarium), corn (Zea mays), crabgrass (Digitaria sanguinalis), woolly cupgrass (Eriochloa villosa), giant foxtail (Setaria faberii), goosegrass (Eleusine indica), johnsongrass (Sorghum halepense), kochia (Kochia scoparia), lambsquarters (Chenopodium album), morningglory (Ipomoea hederacea), yellow nutsedge (Cyperus esculentus), pigweed (Amaranthus retroflexus), common ragweed (Ambrosia elatior), soybean (Glycine max) and velvetleaf (Abutilon theophrasti) were planted and treated preemergence with test chemicals formulated in a non-phytotoxic solvent mixture which included a surfactant.
(§3) At the same time, plants selected from these crop and weed species and also winter barley (Hordeum vulgare), blackgrass (Alopecurus myosuroides), canary grass (Phalaris minor), chickweed (Stellaria media), downy brome (Bromus tectorum), green foxtail (Setaria viridis), Italian ryegrass (Lolium multiflorum), wheat (Triticum aestivum), wild oat (Avena fatua) and windgrass (Apera spica-venti) were treated with postemergence applications of some of the test chemicals formulated in the same manner. Plants ranged in height from 2 to 18 cm (1- to 4-leaf stage) for postemergence treatments. Plant species in the flooded paddy test consisted of rice (Oryza saliva), smallflower flatsedge (Cyperus difformis), duck salad (Heteranthera limosa) and barnyardgrass (Echinochloa crus-galli) grown to the 2-leaf stage for testing. Treated plants and controls were maintained in a greenhouse for 12 to 14 days, after which time all species were compared to controls and visually evaluated. Plant response ratings, summarized in Table C, are based on a scale of 0 to 100 where 0 is no effect and 100 is complete control. A dash (-) response means no test result.

[11] = test system: bermudagrass (Cynodon dactylon); experiment: Test C preemergence
Description: as §2, §3

[12] = test system: cocklebur (Xanthium strumarium); experiment: Test C preemergence
Description: as §2, §3

[13] = test system: crabgrass (Digitaria sanguinalis); experiment: Test C preemergence
Description: as §2, §3

[14] = test system: giant foxtail (Setaria faberii); experiment: Test C preemergence
Description: as §2, §3

kochia (Kochia scoparia) = experiment: Test C preemergence
Description: as §2, §3

[15] = test system: pigweed (Amaranthus retroflexus); experiment: Test C preemergence
Description: as §2, §3

soybean (Glycine max) = experiment: Test C preemergence
Description: as §2, §3

[16] = test system: woolly cupgrass (Eriochloa villosa); experiment: Test C preemergence
Description: as §2, §3

Sunflower = experiment: Test C preemergence; settings: scale 0 to 100, 0 no effect, 100 complete control
[17] = Preemergence, Rate 500 g/ha, scale 0 to 100, 0 no effect, 100 complete control
[18] = preemergence, Rate 125 g/ha, scale 0 to 100, 0 no effect, 100 complete control
[19] = Rate 62 g/ha, scale 0 to 100, 0 no effect, 100 complete control
[20] = preemergence, Rate 16 g/ha, scale 0 to 100
[21] = preemergence, Rate 31 g/ha, scale 0 to 100
[22] = preemergence, Rate 125 g/ha, scale of 0 to 100 where 0 is no effect and 100 is complete control, 13 to 15 days
[23] = Rate 125 g/ha, scale 0 to 100, 0 no effect, 100 complete control
[24] = preemergence, Rate 250 g/ha, visual evaluation after 12 to 14 days
[25] = preemergence, Rate 250 g/ha, scale 0 to 100, 0 no effect, 100 complete control

Compound: CC(C)(C)c1ccn(C2CCN(c3cccc(Cl)c3)C2=O)n1 (centres unmarked) [Compound 43]
- Plant response rating, Surinam grass [1, 17]: 20
- Plant response rating, Surinam grass [1, 18]: 0
- Plant response rating, Barnyardgrass [2, 17]: 100
- Plant response rating, Barnyardgrass [2, 18]: 60
- Plant response rating, Cocklebur [3, 17]: 0
- Plant response rating, Corn (corn (Zea mays); [17]): 0
- Plant response rating, Corn (corn (Zea mays); [18]): 0
- Plant response rating, Crabgrass [4, 17]: 90
- Plant response rating, Crabgrass [4, 18]: 0
- Plant response rating, Foxtail, Giant [5, 17]: 100
- Plant response rating, Foxtail, Giant [5, 18]: 0
- Plant response rating, Lambsquarters [6, 17]: 100
- Plant response rating, Lambsquarters [6, 18]: 100
- Plant response rating, Morningglory [7, 17]: 0
- Plant response rating, Pigweed [8, 17]: 100
- Plant response rating, Rice (rice (Oryza saliva); [17]): 70
- Plant response rating, Velvetleaf [9, 17]: 0
- Plant response rating, Surinam grass [10, 19]: 0
- Plant response rating, Surinam grass [10, 20]: 0
- Plant response rating, Surinam grass [10, 21]: 0
- Plant response rating, Surinam grass [10, 18]: 0
- Plant response rating, Bermudagrass [11, 19]: 50
- Plant response rating, Bermudagrass [11, 20]: 20
- Plant response rating, Bermudagrass [11, 21]: 40
- Plant response rating, Bermudagrass [11, 18]: 60
- Plant response rating, Cocklebur [12, 19]: 100
- Plant response rating, Cocklebur [12, 20]: 0
- Plant response rating, Cocklebur [12, 21]: 20
- Plant response rating, Cocklebur [12, 18]: 100
- Plant response rating, Crabgrass [13, 19]: 40
- Plant response rating, Crabgrass [13, 20]: 0
- Plant response rating, Crabgrass [13, 21]: 20
- Plant response rating, Crabgrass [13, 18]: 90
- Plant response rating, Foxtail, Giant [14, 19]: 0
- Plant response rating, Foxtail, Giant [14, 20]: 0
- Plant response rating, Foxtail, Giant [14, 21]: 0
- Plant response rating, Foxtail, Giant [14, 18]: 0
- Plant response rating, Kochia (kochia (Kochia scoparia); [19]): 90
- Plant response rating, Kochia (kochia (Kochia scoparia); [20]): 20
- Plant response rating, Kochia (kochia (Kochia scoparia); [21]): 70
- Plant response rating, Kochia (kochia (Kochia scoparia); [18]): 100
- Plant response rating, Pigweed [15, 19]: 100
- Plant response rating, Pigweed [15, 20]: 20
- Plant response rating, Pigweed [15, 21]: 100
- Plant response rating, Pigweed [15, 18]: 0
- Plant response rating, Soybean (soybean (Glycine max); [19]): 0
- Plant response rating, Soybean (soybean (Glycine max); [20]): 0
- Plant response rating, Soybean (soybean (Glycine max); [21]): 0
- Plant response rating, Soybean (soybean (Glycine max); [18]): 40
- Plant response rating, Cupgrass, Woolly [16, 19]: 30
- Plant response rating, Cupgrass, Woolly [16, 20]: 0
- Plant response rating, Cupgrass, Woolly [16, 21]: 0
- Plant response rating, Cupgrass, Woolly [16, 18]: 30
- Plant response rating, Sunflower (Sunflower; Rate 125 g/ha): 0

Compound: COC(=O)c1cccc(N2CCC(n3ccc(C(C)(C)C)n3)C2=O)c1 (centres unmarked) [Compound 73]
- Plant response rating, Surinam grass [1, 17]: 90
- Plant response rating, Surinam grass [1, 22]: 50
- Plant response rating, Barnyardgrass [2, 17]: 100
- Plant response rating, Barnyardgrass [2, 22]: 100
- Plant response rating, Cocklebur [3, 17]: 90
- Plant response rating, Cocklebur [3, 22]: 0
- Plant response rating, Corn (corn (Zea mays); [17]): 30
- Plant response rating, Corn (corn (Zea mays); [22]): 0
- Plant response rating, Crabgrass [4, 17]: 100
- Plant response rating, Crabgrass [4, 22]: 100
- Plant response rating, Foxtail, Giant [5, 17]: 100
- Plant response rating, Foxtail, Giant [5, 22]: 100
- Plant response rating, Lambsquarters [6, 17]: 100
- Plant response rating, Lambsquarters [6, 22]: 100
- Plant response rating, Morningglory [7, 17]: 100
- Plant response rating, Morningglory [7, 22]: 0
- Plant response rating, Pigweed [8, 17]: 100
- Plant response rating, Pigweed [8, 22]: 100
- Plant response rating, Rice (rice (Oryza saliva); [17]): 40
- Plant response rating, Rice (rice (Oryza saliva); [22]): 30
- Plant response rating, Velvetleaf [9, 17]: 100
- Plant response rating, Velvetleaf [9, 22]: 90
- Plant response rating, Surinam grass [10, 19]: 50
- Plant response rating, Surinam grass [10, 23]: 70
- Plant response rating, Surinam grass [10, 21]: 20
- Plant response rating (0 to 100), Surinam grass [10, 24]: 70
- Plant response rating, Bermudagrass [11, 19]: 70
- Plant response rating, Bermudagrass [11, 23]: 100
- Plant response rating, Bermudagrass [11, 21]: 60
- Plant response rating (0 to 100 where 0 is no effect and 100 is complete control), Bermudagrass [11, 24]: 100
- Plant response rating, Cocklebur [12, 19]: 70
- Plant response rating, Cocklebur [12, 21]: 20
- Plant response rating (0 to 100), Cocklebur [12, 24]: 80
- Plant response rating, Crabgrass [13, 19]: 90
- Plant response rating, Crabgrass [13, 23]: 100
- Plant response rating, Crabgrass [13, 21]: 90
- Plant response rating (0 to 100), Crabgrass [13, 24]: 100
- Plant response rating, Foxtail, Giant [14, 19]: 80
- Plant response rating, Foxtail, Giant [14, 23]: 100
- Plant response rating, Foxtail, Giant [14, 21]: 20
- Plant response rating (0 to 100), Foxtail, Giant [14, 24]: 100
- Plant response rating, Kochia (kochia (Kochia scoparia); [19]): 80
- Plant response rating, Kochia (kochia (Kochia scoparia); [23]): 100
- Plant response rating, Kochia (kochia (Kochia scoparia); [21]): 20
- Plant response rating (0 to 100), Kochia (kochia (Kochia scoparia); [24]): 100
- Plant response rating, Pigweed [15, 23]: 0
- Plant response rating, Pigweed [15, 21]: 0
- Plant response rating, Pigweed [15, 25]: 40
- Plant response rating, Soybean (soybean (Glycine max); [23]): 40
- Plant response rating, Soybean (soybean (Glycine max); [21]): 0
- Plant response rating, Soybean (soybean (Glycine max); [25]): 70
- Plant response rating, Cupgrass, Woolly [16, 19]: 60
- Plant response rating, Cupgrass, Woolly [16, 23]: 80
- Plant response rating, Cupgrass, Woolly [16, 21]: 20
- Plant response rating (0 to 100), Cupgrass, Woolly [16, 24]: 100
- Plant response rating, Sunflower (Sunflower; Rate 250 g/ha): 70
